Laboratory results published in patent US20260102397A1, “PHARMACEUTICAL COMPOSITION FOR TREATING LEUKEMIA COMPRISING FLT3 INHIBITOR” (HANMI PHARM. CO., LTD., priority 2020, published 2026).

Columns and labels:
[1] = molecular target: T1, SYK (Homo sapiens, UniProt P43405); test: Kinase inhibition test, Z'-LYTE; type: biochemical; conditions: read-out: 50% activity inhibition value (IC50), SYK
T1 construct: purchased Thermo Fisher Scientific
Experimental: Activity measurement was conducted using LanthaScreen test method (wild type and mutation type FLT3) or Z′-LYTE test method (SYK) developed by Thermo Fisher Scientific. LanthaScreen test method is a method of measuring protein activity by measuring fluorescence resonance energy transfer (FRET) signal under the existence of europium-conjugated antibody on the basis of the binding of Alexa Fluor 647-labelled, ATP-competitive kinase inhibitor (kinase tracer-236) to kinase. Z′-LYTE test method is a method using an enzyme which can cut dephosphorylated substrate, and this method measures the activity of kinase protein by measuring two fluorescent FRET signals attached to each end of peptide substrate. The two experiments were all conducted in 384 well plates under the conditions of 50 mM HEPES pH 7.5, 0.01% BRIJ-35, 10 mM MgCl2, 1 mM EGTA, and 1% DMSO.

[2] = system: MOLM-14 FLT3-ITD/F691L cell strain; test: Mouse model hypodermically implanted with MOLM-14 FLT3-ITD/F691L cell strain; type: in vivo; conditions: nude mice, MOLM-14 FLT3-ITD/F691L subcutaneous, 30 mg/kg/day oral once daily
Experimental: MOLM-14 FLT3-ITD/F691L cell strain was subcutaneously injected into a nude mouse at 3×10^^6 cell/0.15 mL/mouse and the mouse was left to grow.
The control group was administered for 13 days and the drug administration groups were administered for 18 days with each pertinent drug.
The tumor volume (mm^3) of the surviving mice in each group was plotted on the y-axis, whereas the number of days of medication was plotted on the x-axis. In order to evaluate the effects of the administration of drugs, the results of complete response (CR) in which tumor had completely disappeared were checked. […] (*p<0.05, **p<0.01, ***p<0.001, and ****p<0.0001 Sidk's test was conducted after two-way analysis of variance)

SMILES: Cc1ccc2c(-c3nc(Nc4cc(CN5C[C@@H](C)N[C@@H](C)C5)cc(C5CC5)c4)ncc3Cl)c[nH]c2c1 [Compound A, 5-chloro-N-(3-cyclopropyl-5-(((3R,5S)-3,5-dimethylpiperazine-1-yl)methyl)phenyl)-4-(6-methyl-1H-indol-3-yl)pyrimidine-2-amin]
- IC50 [1]: 2.9 nM
- complete response (CR, tumor completely disappeared), day of administration [2]: 12 days
- volume of tumor compared with Gilteritinib administration group ([2]; 18 days, FIG. 1): reduced more significantly
